Test results taken from patent US20260016464A1, “METHOD FOR CHARACTERIZING, TYPING AND IDENTIFYING CELLS AND USE THEREOF” (Yigong Ruixin (Xiamen) Technology Co., Ltd, priority 2023, published 2026).

Experiments:
[1] = tested on: non-small cell lung cancer cells A549; test: Cell viability reflected by cellular mechanical force (cellular mechanical force detection device); type: cell-based
Excerpt: This example specifically provides application of cellular physical information acquired by the characterization system for cell/multicellular aggregate interaction described in any one of examples 10 to 12 or the cellular mechanical force detection method described in example 14 in monitoring cell viability.
(§1) Please refer to FIG. 40, FIG. 41 and FIG. 42. FIG. 40 is a schematic diagram of the operation process of the cell viability detection method; FIG. 41 is a comparison diagram of cell viability measured by MTT method and cellular mechanical force measured by the device or system or method of the present invention after A549 cells are treated with different doses of 5FU for 24 h; FIG. 42 is a comparison diagram of cell viability measured by MTT method and cellular mechanical force measured by the device or system or method of the present invention after A549 cells are treated with different doses of 5FU for different times.
(§2) Specifically, in this example, non-small cell lung cancer cells A549 are cultured on multiple cellular mechanical force detection devices, treated with different doses of the cell proliferation inhibitory drug 5-fluorouracil (5-FU), and cellular mechanical force at different time points is monitored by the characterization system for cell/multicellular aggregate interaction described in any one of examples 10 to 12 or the cellular mechanical force detection method described in example 14. Cell proliferation and cytotoxicity at different time points are monitored by CCK-8 kit, and cell viability measured by MTT assay is used as a control group to obtain data in FIGS. 41 and 42.

[2] = tested on: non-small cell lung cancer cells A549; test: Cell viability measured by MTT assay (control method); type: cell-based
Method: as §1, §2

[3] = different doses and times of treatment (FIGS. 41 and 42)

Compound: O=c1[nH]cc(F)c(=O)[nH]1 [5FU, 5-fluorouracil]
- cell viability reflected by the cellular mechanical force [1, 3]: gradually decreasing trend in a dose-dependent manner
- reduction range of cell viability reflected by mechanical force ([1]; different doses, 24 h, compared with control group DMSO (FIG. 41)): larger than that reflected by the traditional MTT assay
- time at which a significant decreasing trend of cellular mechanical force can be observed ([1]; treatment dose of 0.5 μM (FIG. 42)): 6 h
- time at which a significant decreasing trend of cellular mechanical force can be observed ([1]; treatment dose of 1 μM (FIG. 42)): 3 h
- cell viability measured by the MTT assay [2, 3]: gradually decreasing trend in a dose-dependent manner
- change in cell viability measured by the MTT method ([2]; within 12 h of treatment (FIG. 42)): not obvious
